The target of series [1] is T1, human CB1 (Homo sapiens, UniProt P21554).
T1 construct: expressed in transfected cells; host or cells: CHO cells co-expressing Gqα16
The experiment in a line: functional fluorescent calcium mobilization assay, antagonism of CP55,940 (Ke). It is filed as cell-based. Particulars: for Kd: apparent equilibrium dissociation constant, CHO cells expressing human CB1 along with Gqα16, agonist CP55,940, read-out: Ke hCB1. As to the method: A functional fluorescent calcium mobilization was performed in CHO cells expressing human CB1 along with Gqα16. In FIG. 1A, a concentration-dependent increase in fluorescence upon treatment with the CB1 agonist CP55,940 is shown (solid line/triangle markers). […] The EC50 values in the presence and absence of the antagonist are used to calculate antagonist apparent equilibrium dissociation constant (Ke). Suppression of basal signaling in the absence of any stimulation/agonism was measured using the same approach. […] Provided data are representative of a minimum of three experiments and were fitted using non-linear regression analyses in GraphPad Prism.

The target in series [2] is T1, human CB1. As to the kind of experiment: radioligand displacement assay using [3H]CP55940 in CHO cell membrane preparations. The class given is binding. The following applies: [3H]CP55940 displacement, CHO cell membranes overexpressing human CB1; read-out: Ki hCB1. The text has this: (§1) See Ki values above, based on radioligand displacement assay using ^3H-CP55940, a synthetic cannabinoid, (−)-cis-3-[2-hydroxy-4-(1,1-dimethylheptyl)phenyl]-trans-4-(3-hydroxypropyl)cyclohexanol, which is a compound commonly used to study the endocannabinoid system.
Background: Displacement assays read how much labelled ligand stays bound in the presence of the test substance.

For series [3], the target named is human CB2 (Homo sapiens, UniProt P34972). As to the kind of experiment: radioligand displacement assay using [3H]CP55940 in CHO cell membrane preparations (CB2, for selectivity). The class given is binding. The following applies: ratio of Ki human CB2 / human CB1.
Text: as §1

Series [4] in a line: HLM stability. It is filed as in vitro ADME. The following applies: for HLM HL: HLM half-life; for microsomal CLint: human, liver microsomes, HLM clearance, read-out: HLM Cl.
In series [5] the target is T1, human CB1. As to the kind of experiment: suppression of basal signaling in fluorescent calcium mobilization assay (inverse agonism). The class given is cell-based. As to the method:
A functional fluorescent calcium mobilization was performed in CHO cells expressing human CB1 along with Gqα16. […] The EC50 values in the presence and absence of the antagonist are used to calculate antagonist apparent equilibrium dissociation constant (Ke). Suppression of basal signaling in the absence of any stimulation/agonism was measured using the same approach. […] Provided data are representative of a minimum of three experiments and were fitted using non-linear regression analyses in GraphPad Prism.
Background: Calcium assays in cells follow changes in intracellular calcium, usually with a dye or a luminescent sensor.

In series [6] the test system is C57BL6 male mice. The experiment in a line: THC drug discrimination model. It is filed as in vivo. An excerpt: Drug discrimination is a behavioral model of the interoceptive effects of a compound. This pharmacologically selective model has high predictive validity, producing a strong correlation between drugs that have sharing discriminative stimulus properties in animals and drugs that humans identify as having similar subjective effects. FIG. 3 provides the results of this study, in which C57BL6 male mice (n=8) were trained to discriminate the reference drug (THC) using a discrimination procedure similar to that described in Wiley et al., Neuropharmacology 75, 145-154 (2013), Van et al., Eur. J. Pharmacol. 615, 102-107, and Wiley et al., J. Pharmacol. Exp. Ther. 354, 328-339 (2015), which are incorporated herein by reference in their entireties. For each session, the percentage of responses on the drug-associated lever and response rate response(s) were calculated.

In series [7] the test system is male C57BL/6J mice. The experiment in a line: reversal of diet-induced obesity (DIO) in mice. It is filed as in vivo. The following applies: oral, 1x daily, 5 days per week. As for the experimental part: Preconditioned male C57BL/6J mice were purchased from the Jackson Laboratories (Bar Harbor, Maine) at 18 weeks of age. These animals were maintained either on ad libitum standard diet (SD) with 10% fat (D12450B) or on 60% high fat diet (HFD; D12492) from Research Diets (New Brunswick, NJ.) Animals were dosed by intragastric gavage once daily Monday-Friday (5 days per week) with either vehicle (0.5% sodium carboxymethylcellulose with 1% NMP and 0.3% Tween 80 in de-ionized water) or Compound 3 suspended in the vehicle. Body weights were recorded at regular intervals. Organs were removed and processed as has been described in the legend of FIG. 4. Biomarkers of efficacy were measured including circulating enzymes, liver weight and liver adiposity as indicated.
Data were reported as mean (FIG. 4A) or mean and range (FIGS. 4B and 4C). […] Hepatic statosis was reduced, as assessed using Oil Red O staining (FIG. 4G), with representative images shown as FIGS. 4H, 4I, and 4J. Significance was calculated using ANOVA with Fisher's test (p<0.05*, 0.01**, 0.001***, 0.0001****).

In series [8] the target is T2, CB1 receptor (Mus musculus, UniProt P47746).
T2 construct: from tissue; host or cells: brain of living B6 mice (in vivo PET)
The experiment in a line: PET target engagement with CB1 radiotracer 11C-JHU75528. The class given is in vivo. Particulars: male and female B6 mice, IP pretreatment. As to the method: FIG. 5A provides a representative image of target specificity of Compound 3 for the CB1 receptor in mice along with quantification. […] The well-characterized CB1 radiotracer ^11C-JHU75528 was used for this purpose. A baseline response for each animal (2 male and 2 female mice) was first established using the vehicle and tracer (~10 MBq in 0.1-0.15 ml volume, tail vein catheter). Following a 48-hr washout, animals were administered Compound 3 via intraperitoneal (IP) injection followed by the probe. PET image acquisition by dynamic scanning was performed for 65 min after the second injection with energy window of 350-700 KeV. […] The PET images were normalized to the standardized uptake value (SUV) unit. Two-tissue compartmental model was applied using the PKIN module in PMOD 4.0 software. See, e.g., FIG. 5B, where quantification of the signal confirmed a blocking effect on cerebral uptake. Compound 3 blocked ^11C-JHU75528 uptake, confirming in vivo activity.

T1 sequence (P21554 whole entry): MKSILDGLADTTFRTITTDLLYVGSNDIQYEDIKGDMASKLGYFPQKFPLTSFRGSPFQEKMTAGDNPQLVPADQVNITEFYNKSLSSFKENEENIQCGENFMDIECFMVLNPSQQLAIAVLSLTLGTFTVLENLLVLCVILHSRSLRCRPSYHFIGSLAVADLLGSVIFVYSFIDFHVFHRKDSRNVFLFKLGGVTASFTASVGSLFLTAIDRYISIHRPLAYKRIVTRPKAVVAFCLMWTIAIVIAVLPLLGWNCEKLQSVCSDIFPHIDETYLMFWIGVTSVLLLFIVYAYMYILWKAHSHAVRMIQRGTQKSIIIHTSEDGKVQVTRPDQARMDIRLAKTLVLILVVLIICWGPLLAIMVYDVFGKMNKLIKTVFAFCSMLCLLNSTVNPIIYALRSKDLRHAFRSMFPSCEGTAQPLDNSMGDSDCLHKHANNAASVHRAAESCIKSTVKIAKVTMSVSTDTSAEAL
Chain of human CB2 (P34972 whole entry): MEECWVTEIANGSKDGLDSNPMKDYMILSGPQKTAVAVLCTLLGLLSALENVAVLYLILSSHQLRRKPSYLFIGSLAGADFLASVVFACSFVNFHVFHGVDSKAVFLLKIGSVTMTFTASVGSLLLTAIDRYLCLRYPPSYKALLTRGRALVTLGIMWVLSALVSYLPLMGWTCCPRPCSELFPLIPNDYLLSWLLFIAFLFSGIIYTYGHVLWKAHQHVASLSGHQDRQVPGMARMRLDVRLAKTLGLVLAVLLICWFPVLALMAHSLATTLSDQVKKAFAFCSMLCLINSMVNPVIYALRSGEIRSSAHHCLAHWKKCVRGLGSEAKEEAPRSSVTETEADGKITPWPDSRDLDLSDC
T2 sequence (P47746 whole entry): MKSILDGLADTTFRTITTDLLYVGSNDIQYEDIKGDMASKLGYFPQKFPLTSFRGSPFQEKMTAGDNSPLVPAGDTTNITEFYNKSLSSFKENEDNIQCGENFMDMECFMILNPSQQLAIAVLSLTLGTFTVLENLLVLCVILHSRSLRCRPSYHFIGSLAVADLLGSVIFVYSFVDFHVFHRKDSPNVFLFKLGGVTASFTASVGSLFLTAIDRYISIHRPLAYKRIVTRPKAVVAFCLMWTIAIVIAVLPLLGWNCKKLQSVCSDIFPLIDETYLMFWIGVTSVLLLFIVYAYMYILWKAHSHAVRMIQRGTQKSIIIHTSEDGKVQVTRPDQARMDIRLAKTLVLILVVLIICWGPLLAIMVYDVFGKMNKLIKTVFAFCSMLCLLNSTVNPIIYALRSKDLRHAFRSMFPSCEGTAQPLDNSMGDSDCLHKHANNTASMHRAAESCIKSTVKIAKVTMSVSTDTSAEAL

Turning to `O=C(Cc1ccccc1F)NC1CCN(c2ncnc3c2nc(-c2ccccc2Cl)n3-c2ccc(Cl)cc2)CC1` [Compound 1, N-{1-[8-(2-Chlorophenyl)-9-(4-chlorophenyl)-9H-purin-6-yl]piperidin-4-yl}-2-(2-fluorophenyl)acetamide], in series [1], the Kd stood at 1 nM. Besides, in series [2], the Ki (as a rule, a measure of affinity in units of concentration, obtained from inhibition or displacement) amounted to 1.5 nM. For the same compound, the “Selectivity Ki (CB2/CB1)” value in series [3] came out at 110. Further, in series [4], the “HLM HL” value was found to be 146 min and the microsomal CLint worked out at 9 µL/min/mg.
For the compound `O=C(Cc1ccc(F)cc1)NC1CCN(c2ncnc3c2nc(-c2ccccc2Cl)n3-c2ccc(Cl)cc2)CC1` [Compound 2, N-{1-[8-(2-Chlorophenyl)-9-(4-chlorophenyl)-9H-purin-6-yl]piperidin-4-yl}-2-(4-fluorophenyl)acetamide], the Kd in series [1] was determined as 1 nM. The Ki in series [2] was 1.4 nM. Further, the “Selectivity Ki (CB2/CB1)” value in series [3] is given as 210. Besides, in series [4], the “HLM HL” value is on record as 150 min and the microsomal CLint came to 8 µL/min/mg.
Take `O=C(Cc1ccc(F)cc1F)NC1CCN(c2ncnc3c2nc(-c2ccccc2Cl)n3-c2ccc(Cl)cc2)CC1` [Compound 3, N-{1-[8-(2-Chlorophenyl)-9-(4-chlorophenyl)-9H-purin-6-yl]piperidin-4-yl}-2-(2,4-difluorophenyl)acetamide]: the Kd in series [1] is 0.8 nM. In series [1] (pre-incubation with antagonist), the “antagonism: shift of the CP55,940 curve” value is listed as “rightward shift”. In series [2], the Ki worked out at 1.1 nM. Besides, in series [3], the “Selectivity Ki (CB2/CB1)” value was 510. Moreover, in series [4], the “HLM HL” value came out at 133 min and the microsomal CLint is 9 µL/min/mg. Further, in series [5] (absence of any stimulation/agonism), the “effect on basal signaling (inverse agonism)” value is recorded as “partial inverse agonist”. For the same compound, the Emax (as a rule, the maximal effect, on the per cent scale that the assay sets) in series [5] (read-out: partial suppression of maximal response (basal signaling), % of rimonabant Emax) was around 30%. The response rates entry in series [6] (compared to controls) is recorded as “not significantly altered”. For the same compound, the “maximum inhibition of THC drug discrimination” value in series [6] (compared with rimonabant) is recorded as “comparable to that of rimonabant”. The THC drug discrimination entry in series [6] (mice trained on 5.6 mpk THC, 3, 5.6 and 10 mpk antagonist) is listed as “antagonize”. For the same compound, in series [7], the body weight result is “significantly reduced”, the “circulating transaminase ALT” value was “reduce”, the “circulating transaminase AST” value is on record as “reduce” and the hepatic cholesterol content entry is “decrease”. For the same compound, the “hepatic steatosis (Oil Red O staining)” value in series [7] was “reduced”. In series [7] (normalized to tibia length), the epididymal adipose weight result was “significantly reduced” and the liver weight entry is reported as “significantly reduced”. For the same compound, the “11C-JHU75528 cerebral uptake (PET)” value in series [8] was “blocked”.
With `CC1(NC(=O)Cc2ccccc2F)CCN(c2ncnc3c2nc(-c2ccccc2Cl)n3-c2ccc(Cl)cc2)CC1` [Compound 4, N-{1-[8-(2-Chlorophenyl)-9-(4-chlorophenyl)-9H-purin-6-yl]-4-methylpiperidin-4-yl}-2-(2-fluorophenyl)acetamide], the Kd in series [1] came out at 3.8 nM.
On the same count and under the same terms, under `CC1(NC(=O)Cc2ccc(F)cc2)CCN(c2ncnc3c2nc(-c2ccccc2Cl)n3-c2ccc(Cl)cc2)CC1` [Compound 5, N-{1-[8-(2-Chlorophenyl)-9-(4-chlorophenyl)-9H-purin-6-yl]-4-methylpiperidin-4-yl}-2-(4-fluorophenyl)acetamide] stands 1.8 nM.

(Values after patent US20260200924A1, “CANNABINOID RECEPTOR 1 ANTAGONISTS AND USES” (RESEARCH TRIANGLE INSTITUTE, priority 2022, published 2026).)
